Reference: ChEMBL document CHEMBL5724914, “Linking interpersonal differences in gut microbiota composition and drug biotransformation activity” (2024)

Tests used:
[1] = (§1) The drug is tested on Z-026 corresponding to metagenome with ENA study accession number: PRJEB37062 and ENA sample accession number: ERS12561825 for biotransformation under anaerobic condition. The drug concentrations were measured over 9 timepoints collected between 0 and 24 hours of incubation by liquid-chromatography-coupled mass spectrometry (LC–MS); conditions: 2 µM
[2] = (§2) The drug is tested on Z-024 corresponding to pig gut metagenome with ENA study accession number: PRJEB37062 and ENA sample accession number: ERS12561823 for biotransformation under anaerobic condition. The drug concentrations were measured over 9 timepoints collected between 0 and 24 hours of incubation by liquid-chromatography-coupled mass spectrometry (LC–MS); conditions: 2 µM
[3] = as §1, with “Z-023” for “Z-026”, “ERS12561822” for “ERS12561825”; conditions: 2 µM
[4] = as §1, with “Z-021” for “Z-026”, “ERS12561820” for “ERS12561825”; conditions: 2 µM
[5] = as §2, with “Z-016” for “Z-024”, “mouse” for “pig”, “ERS12561815” for “ERS12561823”; conditions: 2 µM
[6] = as §2, with “Z-013” for “Z-024”, “rabbit” for “pig”, “ERS12561813” for “ERS12561823”; conditions: 2 µM
[7] = as §2, with “Z-009” for “Z-024”, “ERS12561809” for “ERS12561823”; conditions: 2 µM
[8] = as §1, with “Z-008” for “Z-026”, “ERS12561808” for “ERS12561825”; conditions: 2 µM
[9] = as §2, with “Z-003” for “Z-024”, “ERS12561803” for “ERS12561823”; conditions: 2 µM
[10] = as §2, with “WLS-090” for “Z-024”, “human” for “pig”, “ERS12561753” for “ERS12561823”; conditions: 2 µM
[11] = as §2, with “WLS-073” for “Z-024”, “human” for “pig”, “ERS12561749” for “ERS12561823”; conditions: 2 µM
[12] = human gut metagenome, 24 h, 2 µM
[13] = human gut metagenome, 24 h, 2 µM; remark: listed apart in the source
[14] = human gut metagenome, 24 h, 2 µM; remark: listed apart in the source
[15] = human gut metagenome, 24 h, 2 µM; remark: listed apart in the source
[16] = human gut metagenome, 24 h, 2 µM; remark: listed apart in the source
[17] = human gut metagenome, 24 h, 2 µM; remark: listed apart in the source
[18] = human gut metagenome, 24 h, 2 µM; remark: listed apart in the source
[19] = human gut metagenome, 24 h, 2 µM; remark: listed apart in the source
[20] = human gut metagenome, 24 h, 2 µM; remark: listed apart in the source
Also: call rule not given here.

SMILES | Bacterial Biotransformation [1] | Bacterial Biotransformation [2] | Bacterial Biotransformation [3] | Bacterial Biotransformation [4] | Bacterial Biotransformation [5] | Bacterial Biotransformation [6] | Bacterial Biotransformation [7] | Bacterial Biotransformation [8] | Bacterial Biotransformation [9] | Bacterial Biotransformation [10] | Bacterial Biotransformation [11] | Bacterial Biotransformation [12] | Bacterial Biotransformation [13] | Bacterial Biotransformation [14] | Bacterial Biotransformation [15] | Bacterial Biotransformation [16] | Bacterial Biotransformation [17] | Bacterial Biotransformation [18] | Bacterial Biotransformation [19] | Bacterial Biotransformation [20]
COc1ccc(CN2CCNCC2)c(OC)c1OC.Cl.Cl [TRIMETAZIDINE DIHYDROCHLORIDE] | Compound NOT metabolized | Compound NOT metabolized | Compound NOT metabolized | Compound NOT metabolized | Compound NOT metabolized | Compound NOT metabolized | Compound NOT metabolized | Compound NOT metabolized | Compound NOT metabolized | Compound NOT metabolized | Compound NOT metabolized | Compound NOT metabolized | Compound NOT metabolized | Compound NOT metabolized | Compound NOT metabolized | Compound NOT metabolized | Compound NOT metabolized | Compound NOT metabolized | Compound NOT metabolized | Compound NOT metabolized
CN1[C@@H]2CC[C@H]1C[C@@H](OC(=O)c1c[nH]c3ccccc13)C2 [TROPISETRON] | Compound NOT metabolized | Compound NOT metabolized | Compound NOT metabolized | Compound NOT metabolized | Compound NOT metabolized | Compound NOT metabolized | Compound NOT metabolized | Compound NOT metabolized | Compound NOT metabolized | Compound metabolized | Compound NOT metabolized | Compound NOT metabolized | Compound NOT metabolized | Compound NOT metabolized | Compound NOT metabolized | Compound NOT metabolized | Compound NOT metabolized | Compound NOT metabolized | Compound NOT metabolized | Compound NOT metabolized
